Source: patent US8268998B2, “Pyrrolotriazine kinase inhibitors” (Bristol-Myers Squibb Company, priority 2006, dated 2012)

Legend:
[1] = molecular target: T1, TrkA (Homo sapiens, UniProt P04629); assay: TrkA tyrosine kinase inhibition assay (recombinant enzyme, polyGluTyr phosphorylation, 33P); type: biochemical; details: kinase domain of human TrkA, substrate PGT 0.1 mg/ml, 30 uM ATP, 1 hour at 30° C.
T1 construct: The kinase domain of the human TrkA receptor is expressed in Sf9 insect cells as a histidine (His)-fusion protein; His; made in house; host or cells: Sf9 insect cells (baculovirus)
T1 sequence (P04629 510-781 limits assumed): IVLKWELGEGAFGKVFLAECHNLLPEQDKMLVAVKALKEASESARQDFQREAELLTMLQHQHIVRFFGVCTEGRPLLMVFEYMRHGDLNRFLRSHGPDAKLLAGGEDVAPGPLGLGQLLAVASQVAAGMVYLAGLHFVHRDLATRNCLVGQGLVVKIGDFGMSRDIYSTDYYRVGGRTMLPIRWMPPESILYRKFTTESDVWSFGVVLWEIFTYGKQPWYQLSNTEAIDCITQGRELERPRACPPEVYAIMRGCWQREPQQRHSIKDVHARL
Text: The ability of compounds of the invention to inhibit tyrosine kinase activity of TrkA may be measured using a recombinant enzyme in an assay that measures the ability of compounds to inhibit the phosphorylation of the exogenous substrate, polyGluTyr (PGT, 4:1). The kinase domain of the human TrkA receptor is expressed in Sf9 insect cells as a histidine (His)-fusion protein using a baculovirus expression system. The protein is purified from the lysates of these cells using an Ni-NTA affinity column. After the recombinant enzyme is purified, it is activated by incubation with cold ATP. The enzyme assay is performed in a 96-well plate. Test compounds are first dissolved in dimethylsulfoxide (DMSO) and then serially-diluted in a 96-well plate. The serially-diluted compounds are transferred to the 96-well assay plate so that the final concentration of DMSO in the enzyme assay is 1.64%. All assay components are diluted in phosphorylation buffer (20 mm MOPS, 10 mM MgCl2, 1 mM EDTA, 0.015% Brij-35, 0.1 mg/ml BSA, 0.0025% Beta-Mercaptoethanol). The recombinant enzyme is added to the assay plate containing test compound and the reaction is initiated with a substrate solution containing a final concentration of 0.1 mg/ml PGT, 30 uM ATP, and 0.008mCi/ml ^33P-gammaATP (3000Ci/mmol). After a 1 hour incubation at 30° C., the reaction is terminated with 10% TCA and incubated at 4° C. for 1 hour. The reaction is filtered onto a Unifilter® GF/C™ filter plate that has been presoaked with 0.1M NaPyrophosphate. Microscint-20 is then added to the dried filter plate and the captured ^33P-phosphorylated PGT is quantitated on a microscintillation plate counter (TopCount•NXT™). Inhibition of the kinase enzymatic activity by the test compound is detected by a reduction in scintillation, and the concentration of compound that is required to inhibit the signal by 50% is reported as the IC50 value for the test compound.

[2] = molecular target: T2, TrkB (Homo sapiens, UniProt Q16620); assay: TrkB tyrosine kinase inhibition assay (recombinant enzyme, polyGluTyr phosphorylation, 33P); type: biochemical; details: kinase domain of human TrkB (amino acids 526-838), substrate PGT 0.1 mg/ml, 30 uM ATP, 1 hour at 30° C.
T2 construct: The kinase domain of the human TrkB receptor (amino acids 526-838); His; purchased Invitrogen; host or cells: insect cells
T2 sequence (Q16620 510-822): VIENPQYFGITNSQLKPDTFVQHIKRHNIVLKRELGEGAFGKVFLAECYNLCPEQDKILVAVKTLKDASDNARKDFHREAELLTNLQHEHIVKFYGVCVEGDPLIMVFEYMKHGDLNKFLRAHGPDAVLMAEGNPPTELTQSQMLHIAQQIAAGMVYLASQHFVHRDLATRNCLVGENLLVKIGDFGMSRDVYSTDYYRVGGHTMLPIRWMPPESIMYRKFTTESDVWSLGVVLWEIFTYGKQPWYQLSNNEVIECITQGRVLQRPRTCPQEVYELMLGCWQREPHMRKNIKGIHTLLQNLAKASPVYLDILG
Experimental: The ability of compounds of the invention to inhibit tyrosine kinase activity of TrkB may be measured using a recombinant enzyme in an assay that measures the ability of compounds to inhibit the phosphorylation of the exogenous substrate, polyGluTyr (PGT, 4:1). The kinase domain of the human TrkB receptor (amino acids 526-838) is expressed in insect cells as a histidine (His)-fusion protein and is commercially available from Invitrogen™. The enzyme assay is performed in a 96-well plate. Test compounds are first dissolved in dimethylsulfoxide (DMSO) and then serially-diluted in a 96-well plate. The serially-diluted compounds are transferred to the 96-well assay plate so that the final concentration of DMSO in the enzyme assay is 1.64%. All assay components are diluted in phosphorylation buffer (20 mm MOPS, 10 mM MgCl2, 1 mM EDTA, 0.015% Brij-35, 0.1 mg/ml BSA, 0.0025% Beta-Mercaptoethanol). The recombinant enzyme is added to the assay plate containing test compound and the reaction is initiated with a substrate solution containing a final concentration of 0.1 mg/ml PGT, 30 uM ATP, and 0.008mCi/ml ^33P-gammaATP (3000 Ci/mmol). After a 1 hour incubation at 30° C., the reaction is terminated with 10% TCA and incubated at 4° C. for 1 hour. The reaction is filtered onto a Unifilter® GF/C™ filter plate that has been pre-soaked with 0.1M NaPyrophosphate. Microscint-20 is then added to the dried filter plate and the captured ^33P-phosphorylated PGT is quantitated on a microscintillation plate counter (TopCount•NXT™). Inhibition of the kinase enzymatic activity by the test compound is detected by a reduction in scintillation, and the concentration of compound that is required to inhibit the signal by 50% is reported as the IC50 value for the test compound.

| IC50 [1] | IC50 [2] | SMILES |
| --- | --- | --- |
| 36 nM | 64 nM | CC(C)[C@@H](CO)Nc1nc(Nc2cc(C3CC3)[nH]n2)nn2cccc12 [Example 24, (2S)-2-((2-((5-cyclopropyl-1H-pyrazol-3-yl)amino)pyrrolo[2,1-ƒ][1,2,4]triazin-4-yl)amino)-3-methyl-1-butanol] |
| 0.5 nM | 2 nM | CCCC[C@H](C)Nc1nc(Nc2cc(C3CC3)[nH]n2)nn2cccc12 [Example 21, N^2-(5-cyclopropyl-1H-pyrazol-3-yl)-N^4-((1S)-1-methylpentyl)pyrrolo[2,1-ƒ][1,2,4]triazine-2,4-diamine] |
| 0.3 nM | 0.8 nM | C[C@H](Nc1nc(Nc2cc(C3CC3)[nH]n2)nn2cccc12)c1ccc(F)cc1 [Example 1, N^2-(5-cyclopropyl-1H-pyrazol-3-yl)-N^4-((1S)-1-(4-fluorophenyl)ethyl)pyrrolo[2,1-f][1,2,4]triazine-2,4-diamine] |
| 2 nM | 3 nM | C[C@H](Nc1nc(Nc2cc(C3CC3)[nH]n2)nn2cccc12)C1CCCCC1 [Example 32, N^4-((1S)-1-cyclohexylethyl)-N^2-(5-cyclopropyl-1H-pyrazol-3-yl)pyrrolo[2,1-ƒ][1,2,4]triazine-2,4-diamine] |
